Values quoted from earlier work in US20230104487A1, “11-(4-CHLOROPHENYL)-4-(2,3-DIHYDRO-1H-INDOLE-1-CARBONYL)-3,11-DIMETHYL-5,10,DIOXATRICYCLO[7.4.0.0,2,6,]TRIDECA-1,3,6,8-TETRAEN-13-ONE AND DERIVATIVES AS DESTABILIZER OF CRY1 FOR THE TREATMENT OF CIRCADIAN RHYTHM ASSOCIATED DISEASES AND DISORDERS” (KOC UNIVERSITESI, priority 2019, published 2023).

Experiments:
REV-ERB = details: Solt et al., 2012; cited from earlier work
CRYs = details: Hirota et al., 2012; cited from earlier work
gluconeogenesis = details: Hirota et al., 2012; cited from earlier work

SMILES | effect on REV-ERB's repressor function (REV-ERB) | effect on stability of the CRYs (CRYs) | effect on gluconeogenesis (gluconeogenesis)
CC(C)(C)OC(=O)CN(Cc1ccc(Cl)cc1)Cc1ccc([N+](=O)[O-])s1 [GSK4112] | enhance REV-ERB's repressor function toward Bmal1 transcription | – | –
CS(=O)(=O)N(Cc1ccco1)CC(O)Cn1c2ccccc2c2ccccc21 (stereo not drawn) [KL001] | – | increases stability of the CRYs | suppresses the gluconeogenesis
